“And” between values parts separate entries of the source, which are not always exact repeats. Identical values can stand only once. Toxic doses and inconclusive results are not listed.
Tested on: CD2F1 mice, L1210 leukemia ip, survival T/C
Assay: NCI In Vivo Anticancer Drug Screen. Data for tumor model L1210 Leukemia (intraperitoneal) in CD2F1 (CDF1) mice
Settings: higher = longer survival
Outline: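 Tumor-bearing mice (transplanted tumor) were split into treated and vehicle control groups, and the measured endpoint of each treated group was divided by that of its vehicle controls.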

[1] = endpoint: mean survival time, dose: 12.5 mg/kg/injection, schedule: Q04DX003 (ip), vehicle: saline with Tween-80
[2] = endpoint: mean survival time, dose: 25.0 mg/kg/injection, schedule: Q04DX003 (ip), vehicle: saline with Tween-80
[3] = endpoint: mean survival time, dose: 50.0 mg/kg/injection, schedule: Q04DX003 (ip), vehicle: saline with Tween-80

## CN(Cc1cnc2nc(N)nc(N)c2n1)c1ccc(C(=O)N[C@@H](CCC(=O)O)C(=O)O)cc1
endpoint: mean survival time, dose: 0.13 mg/kg/injection, schedule: Q01DX009 (ip), vehicle: saline
  T/C: 119 % of control
endpoint: mean survival time, dose: 0.19 mg/kg/injection, schedule: Q01DX009 (ip), vehicle: alkali diluted with saline
  T/C: 115 % of control
endpoint: mean survival time, dose: 0.25 mg/kg/injection, schedule: Q01DX009 (ip), vehicle: sodium bicarbonate
  T/C: 115 % of control
endpoint: mean survival time, dose: 0.25 mg/kg/injection, schedule: Q03HX008 (ip), vehicle: saline
  T/C: 122 % of control
endpoint: mean survival time, dose: 0.38 mg/kg/injection, schedule: Q01DX009 (ip), vehicle: alkali diluted with saline
  T/C: 120 % of control
endpoint: mean survival time, dose: 0.38 mg/kg/injection, schedule: Q01DX009 (ip), vehicle: other
  T/C: 154 % of control
endpoint: mean survival time, dose: 0.44 mg/kg/injection, schedule: Q01DX009 (ip), vehicle: sodium bicarbonate
  T/C: 156 % of control
endpoint: mean survival time, dose: 0.47 mg/kg/injection, schedule: Q01DX009 (ip), vehicle: sodium bicarbonate
  T/C: 160 % of control
endpoint: mean survival time, dose: 0.5 mg/kg/injection, schedule: Q01DX005 (ip), vehicle: sodium bicarbonate
  T/C: 115 % of control and 122 % of control
endpoint: mean survival time, dose: 0.5 mg/kg/injection, schedule: Q01DX007 (ip), vehicle: other
  T/C: 117 % of control
endpoint: mean survival time, dose: 0.5 mg/kg/injection, schedule: Q01DX009 (ip), vehicle: saline
  T/C: 159 % of control
endpoint: mean survival time, dose: 0.75 mg/kg/injection, schedule: Q01DX009 (ip), vehicle: alkali diluted with saline
  T/C: 152 % of control and 163 % of control
endpoint: mean survival time, dose: 0.75 mg/kg/injection, schedule: Q01DX009 (ip), vehicle: other
  T/C: 154 % of control
endpoint: mean survival time, dose: 0.78 mg/kg/injection, schedule: Q01DX009 (ip), vehicle: sodium bicarbonate
  T/C: 166 % of control
endpoint: mean survival time, dose: 1.0 mg/kg/injection, schedule: Q01DX005 (ip), vehicle: sodium bicarbonate
  T/C: 113 % of control
endpoint: mean survival time, dose: 1.0 mg/kg/injection, schedule: Q01DX009 (ip), vehicle: saline
  T/C: 171 % of control and 183 % of control
endpoint: mean survival time, dose: 1.3 mg/kg/injection, schedule: Q01DX009 (ip), vehicle: sodium bicarbonate
  T/C: 181 % of control
endpoint: mean survival time, dose: 1.5 mg/kg/injection, schedule: Q01DX009 (ip), vehicle: alkali diluted with saline
  T/C: 177 % of control and 178 % of control
endpoint: mean survival time, dose: 1.5 mg/kg/injection, schedule: Q01DX009 (ip), vehicle: other
  T/C: 150 % of control and 164 % of control
endpoint: mean survival time, dose: 2.0 mg/kg/injection, schedule: Q01DX007 (ip), vehicle: other
  T/C: 164 % of control
endpoint: mean survival time, dose: 2.0 mg/kg/injection, schedule: Q01DX009 (ip), vehicle: saline
  T/C: 161 % of control
endpoint: mean survival time, dose: 2.0 mg/kg/injection, schedule: Q02DX005 (ip), vehicle: sodium bicarbonate
  T/C: 170 % of control
endpoint: mean survival time, dose: 2.0 mg/kg/injection, schedule: Q03DX003 (ip), vehicle: sodium bicarbonate
  T/C: 158 % of control
endpoint: mean survival time, dose: 2.0 mg/kg/injection, schedule: Q04DX003 (ip), vehicle: sodium bicarbonate
  T/C: 160 % of control
endpoint: mean survival time, dose: 2.16 mg/kg/injection, schedule: Q01DX009 (ip), vehicle: sodium bicarbonate
  T/C: 179 % of control
endpoint: mean survival time, dose: 2.3 mg/kg/injection, schedule: Q01DX009 (ip), vehicle: sodium bicarbonate
  T/C: 164 % of control
endpoint: mean survival time, dose: 2.3 mg/kg/injection, schedule: Q04DX003 (ip), vehicle: saline
  T/C: 114 % of control
endpoint: mean survival time, dose: 2.5 mg/kg/injection, schedule: Q04DX003 (ip), vehicle: sodium bicarbonate
  T/C: 116 % of control
endpoint: mean survival time, dose: 4.0 mg/kg/injection, schedule: Q01DX005 (ip), vehicle: sodium bicarbonate
  T/C: 160 % of control
endpoint: mean survival time, dose: 4.0 mg/kg/injection, schedule: Q04DX003 (ip), vehicle: saline
  T/C: 166 % of control
endpoint: mean survival time, dose: 4.0 mg/kg/injection, schedule: Q04DX003 (ip), vehicle: sodium bicarbonate
  T/C: 169 % of control
endpoint: mean survival time, dose: 4.6 mg/kg/injection, schedule: Q04DX003 (ip), vehicle: saline
  T/C: 164 % of control
endpoint: mean survival time, dose: 5.0 mg/kg/injection, schedule: Q04DX003 (ip), vehicle: alkali diluted with saline
  T/C: 156 % of control
endpoint: mean survival time, dose: 5.0 mg/kg/injection, schedule: Q04DX003 (ip), vehicle: sodium bicarbonate
  T/C: 159 % of control
endpoint: mean survival time, dose: 5.4 mg/kg/injection, schedule: Q04DX003 (ip), vehicle: sodium bicarbonate
  T/C: 165 % of control
endpoint: mean survival time, dose: 8.0 mg/kg/injection, schedule: Q01DX001 (ip), vehicle: saline
  T/C: 116 % of control
endpoint: mean survival time, dose: 8.0 mg/kg/injection, schedule: Q03DX003 (ip), vehicle: sodium bicarbonate
  T/C: 181 % of control
endpoint: mean survival time, dose: 9.0 mg/kg/injection, schedule: Q04DX003 (ip), vehicle: sodium bicarbonate
  T/C: 176 % of control
endpoint: mean survival time, dose: 9.2 mg/kg/injection, schedule: Q04DX003 (ip), vehicle: saline
  T/C: 175 % of control
endpoint: mean survival time, dose: 10.0 mg/kg/injection, schedule: Q01DX005 (ip), vehicle: sodium bicarbonate
  T/C: 164 % of control
endpoint: mean survival time, dose: 10.0 mg/kg/injection, schedule: Q04DX003 (ip), vehicle: alkali diluted with saline
  T/C: 154 % of control and 164 % of control
endpoint: mean survival time, dose: 10.0 mg/kg/injection, schedule: Q04DX004 (ip), vehicle: sodium bicarbonate
  T/C: 165 % of control and 183 % of control
endpoint: mean survival time, dose: 15.0 mg/kg/injection, schedule: Q04DX004 (ip), vehicle: sodium bicarbonate
  T/C: 168 % of control and 170 % of control
endpoint: mean survival time, dose: 16.0 mg/kg/injection, schedule: Q04DX003 (ip), vehicle: saline
  T/C: 150 % of control
endpoint: mean survival time, dose: 25.0 mg/kg/injection, schedule: Q04DX003 (ip), vehicle: sodium bicarbonate
  T/C: 174 % of control
endpoint: mean survival time, dose: 25.0 mg/kg/injection, schedule: Q04DX004 (ip), vehicle: sodium bicarbonate
  T/C: 175 % of control
endpoint: mean survival time, dose: 32.0 mg/kg/injection, schedule: Q04DX003 (ip), vehicle: saline
  T/C: 174 % of control
endpoint: mean survival time, dose: 35.0 mg/kg/injection, schedule: Q04DX003 (ip), vehicle: sodium bicarbonate
  T/C: 175 % of control
endpoint: mean survival time, dose: 36.8 mg/kg/injection, schedule: Q04DX003 (ip), vehicle: saline
  T/C: 159 % of control
endpoint: mean survival time, dose: 41.7 mg/kg/injection, schedule: Q04DX003 (ip), vehicle: sodium bicarbonate
  T/C: 116 % of control
endpoint: mean survival time, dose: 64.0 mg/kg/injection, schedule: Q04DX003 (ip), vehicle: saline
  T/C: 120 % of control
endpoint: mean survival time, dose: 73.5 mg/kg/injection, schedule: Q04DX003 (ip), vehicle: saline
  T/C: 124 % of control
endpoint: mean survival time, dose: 128.0 mg/kg/injection, schedule: Q04DX003 (ip), vehicle: saline
  T/C: 120 % of control
endpoint: median survival time, dose: 0.5 mg/kg/injection, schedule: Q01DX005 (ip), vehicle: sodium bicarbonate
  T/C: 113 % of control
endpoint: median survival time, dose: 0.52 mg/kg/injection, schedule: Q01DX009 (ip), vehicle: sodium bicarbonate
  T/C: 152 % of control
endpoint: median survival time, dose: 0.6 mg/kg/injection, schedule: Q06HX024 (ip), vehicle: saline
  T/C: 116 % of control
endpoint: median survival time, dose: 0.86 mg/kg/injection, schedule: Q01DX009 (ip), vehicle: sodium bicarbonate
  T/C: 165 % of control
endpoint: median survival time, dose: 1.0 mg/kg/injection, schedule: Q01DX005 (ip), vehicle: sodium bicarbonate
  T/C: 124 % of control
endpoint: median survival time, dose: 1.25 mg/kg/injection, schedule: Q01DX009 (ip), vehicle: sodium bicarbonate
  T/C: 173 % of control and 178 % of control
endpoint: median survival time, dose: 1.56 mg/kg/injection, schedule: Q01DX009 (ip), vehicle: sodium bicarbonate
  T/C: 171 % of control
endpoint: median survival time, dose: 2.5 mg/kg/injection, schedule: Q01DX009 (ip), vehicle: sodium bicarbonate
  T/C: 182 % of control
endpoint: median survival time, dose: 3.0 mg/kg/injection, schedule: Q01DX005 (ip), vehicle: sodium bicarbonate
  T/C: 160 % of control and 175 % of control
endpoint: median survival time, dose: 3.0 mg/kg/injection, schedule: Q01DX009 (ip), vehicle: sodium bicarbonate
  T/C: 156 % of control
endpoint: median survival time, dose: 4.0 mg/kg/injection, schedule: Q01DX005 (ip), vehicle: sodium bicarbonate
  T/C: 168 % of control and 181 % of control
endpoint: median survival time, dose: 4.5 mg/kg/injection, schedule: Q01DX005 (ip), vehicle: sodium bicarbonate
  T/C: 169 % of control (2×) and 183 % of control
endpoint: median survival time, dose: 5.4 mg/kg/injection, schedule: Q04DX003 (ip), vehicle: sodium bicarbonate
  T/C: 163 % of control and 168 % of control
endpoint: median survival time, dose: 6.0 mg/kg/injection, schedule: Q01DX005 (ip), vehicle: sodium bicarbonate
  T/C: 171 % of control and 179 % of control
endpoint: median survival time, dose: 9.0 mg/kg/injection, schedule: Q04DX003 (ip), vehicle: sodium bicarbonate
  T/C: 175 % of control
endpoint: median survival time, dose: 12.5 mg/kg/injection, schedule: Q01DX001 (ip), vehicle: sodium bicarbonate
  T/C: 116 % of control
endpoint: median survival time, dose: 15.0 mg/kg/injection, schedule: Q04DX003 (ip), vehicle: sodium bicarbonate
  T/C: 175 % of control
endpoint: median survival time, dose: 25.0 mg/kg/injection, schedule: Q04DX003 (ip), vehicle: sodium bicarbonate
  T/C: 173 % of control
endpoint: median survival time, dose: 72.0 mg/kg/injection, schedule: Q01DX001 (ip), vehicle: sodium bicarbonate
  T/C: 113 % of control and 122 % of control
endpoint: median survival time, dose: 400.0 mg/kg/injection, schedule: Q01DX001 (ip), vehicle: sodium bicarbonate
  T/C: 177 % of control

## O=C(O)C(CSC(c1ccccc1)(c1ccccc1)c1ccccc1)NC(c1ccccc1)(c1ccccc1)c1ccccc1 (centres undefined)
endpoint: mean survival time, dose: 75.0 mg/kg/injection, schedule: Q01DX001 (ip), vehicle: other
  T/C: 97 % of control

## [Br][Pt+2][Br].[NH-]C(c1ccccc1)C([NH-])c1ccccc1 (centres undefined)
[1]
  T/C: 109 % of control and 119 % of control
[2]
  T/C: 107 % of control and 109 % of control
[3]
  T/C: 109 % of control

## O=C1c2ccccc2C(=O)n2nc3ccccc3c21
endpoint: median survival time, dose: 50.0 mg/kg/injection, schedule: Q04DX002 (ip), vehicle: saline with Tween-80
  T/C: 100 % of control
endpoint: median survival time, dose: 100.0 mg/kg/injection, schedule: Q04DX002 (ip), vehicle: saline with Tween-80
  T/C: 100 % of control
endpoint: median survival time, dose: 200.0 mg/kg/injection, schedule: Q04DX002 (ip), vehicle: saline with Tween-80
  T/C: 90 % of control
endpoint: median survival time, dose: 400.0 mg/kg/injection, schedule: Q04DX002 (ip), vehicle: saline with Tween-80
  T/C: 100 % of control

## CC(NCCN(C)C)C1CCC2C3CCC4CC(O)CCC4(C)C3CCC12C (centres undefined)
[1]
  T/C: 101 % of control
[2]
  T/C: 95 % of control
[3]
  T/C: 101 % of control

— PubChem BioAssay AID256 (DTP/NCI, 2004)
